Results: patent publication US10377709B2, “Carboxamide derivatives and the use thereof as medicaments for the treatment of hepatitis B” (Janssen Sciences Ireland UC, priority 2013, dated 2019)

What was measured:
HepG2 cells = assay: Cytotoxicity in HepG2 cells (Resazurin assay); type: cell-based; conditions: incubated 4 days, viability by Resazurin assay
HBV [1] = assay: Anti-HBV activity in HepG2.117 inducible HBV producing cell line (intracellular HBV DNA, realtime PCR); type: cell-based, Hepatitis B virus; conditions: HepG2.117 cells (Tet-off), 3 days of treatment, intracellular HBV DNA by realtime PCR
HBV [2] = assay: Anti-HBV activity in HepG2.2.15 stable transfected cell line (HBV DNA from secreted virions, realtime PCR); type: cell-based, Hepatitis B virus; conditions: HepG2.2.15 cells, 6 days of treatment, HBV DNA from secreted virions by realtime PCR
[3] = Cytotoxicity in HepG2 cells (Resazurin assay); type: cell-based; conditions: human, incubated 4 days, viability by Resazurin assay
[4] = Hepatitis B virus, HepG2.117, 72 h
[5] = Hepatitis B virus, HepG2.2.15, 144 h

Structure (SMILES) | CC50 (HepG2 cells) | EC50 (HBV [1]) | EC50 (HBV [2]) | CC50 at 4 days [3] | EC50 (HBV [1]; [4]) | melting point | EC50 (HBV [2]; [5])
Cc1cc(NC(=O)C2CC(C)N(C(=O)C(=O)NC3(C)COC3)C2)ccc1F (single isomer, unassigned) [Compound 17c, N-(4-fluoro-3-methylphenyl)-5-methyl-1-(2-((3-methyloxetan-3-yl)amino)-2-oxoacetyl)pyrrolidine-3-carboxamide] | > 25 µM | > 1 µM | > 1 µM | – | – | – | –
C[C@@H](NC(=O)C(=O)N1CC[C@H](C(=O)Nc2cc(F)c(F)c(F)c2)C1)C(F)(F)F [Compound 32, (3S)-1-[2-oxo-2-[[(1R)-2,2,2-trifluoro-1-methyl-ethyl]amino]acetyl]-N-(3,4,5-trifluorophenyl)pyrrolidine-3-carboxamide] | – | – | – | > 25 µM | 0.052 µM | 197.3 °C | –
CC(C)NC(=O)C(=O)N1CCC(C(=O)Nc2cc(F)c(F)c(Cl)c2)[C@@H]1C (single isomer, unassigned) [Compound 29b] | > 25 µM | > 1 µM | > 1 µM | – | – | – | –
CC1C(C(=O)Nc2ccc(F)c(Cl)c2F)CCCN1C(=O)C(=O)N[C@H](C)C(F)(F)F (single isomer, unassigned) [Compound 35b] | > 25 µM | 0.483 µM | 0.195 µM | – | – | – | –
CC(C)(C)NC(=O)C(=O)N1CC[C@H](C(=O)Nc2ccc(F)c(Cl)c2F)C1 [Compound 19, (3S)-1-[2-(tert-butylamino)-2-oxo-acetyl]-N-(3-chloro-2,4-difluoro-phenyl)pyrrolidine-3-carboxamide] | – | – | – | > 25 µM | 0.449 µM | – | 0.496 µM
CC(C)NC(=O)C(=O)N1CCC(C(=O)Nc2ccc(F)c(C#N)c2)[C@@H]1C (stereo partly drawn) [Compound 27, (2S)-N-(3-cyano-4-fluoro-phenyl)-1-[2-(isopropylamino)-2-oxo-acetyl]-2-methyl-pyrrolidine-3-carboxamide] | – | – | – | > 25 µM | 0.126 µM | – | 0.119 µM
CC1(NC(=O)C(=O)N2CC[C@H](C(=O)Nc3cc(F)c(F)c(Br)c3)C2)COC1 [Compound 2, (S)-N-(3-bromo-4,5-difluorophenyl)-1-(2-((3-methyloxetan-3-yl)amino)-2-oxoacetyl)pyrrolidine-3-carboxamide] | – | – | – | > 25 µM | 0.033 µM | – | 0.07 µM
CC1C(C(=O)Nc2ccc(F)c(Cl)c2F)CCCN1C(=O)C(=O)N[C@H](C)C(F)(F)F (single isomer, unassigned) [Compound 35d] | > 25 µM | > 1 µM | > 1 µM | – | – | – | –
Cc1cc(NC(=O)C2CC(C)N(C(=O)C(=O)NC3(C)COC3)C2)ccc1F (single isomer, unassigned) [Compound 17d, N-(4-fluoro-3-methylphenyl)-5-methyl-1-(2-((3-methyloxetan-3-yl)amino)-2-oxoacetyl)pyrrolidine-3-carboxamide] | > 25 µM | 0.032 µM | 0.07 µM | – | – | – | –
CC[C@@H](C)NC(=O)C(=O)N1CC[C@H](C(=O)Nc2ccc(F)c(C)c2)C1 [Compound 8, (3S)-N-(4-Fluoro-3-methylphenyl)-1-[{[(1R)-1-methylpropyl]amino}(oxo)acetyl]pyrrolidine-3-carboxamide] | – | – | – | > 25 µM | 0.038 µM | – | 0.065 µM
Cc1cc(NC(=O)C2CC(C)N(C(=O)C(=O)NC3(C)COC3)C2)ccc1F (single isomer, unassigned) [Compound 17a, N-(4-fluoro-3-methylphenyl)-5-methyl-1-(2-((3-methyloxetan-3-yl)amino)-2-oxoacetyl)pyrrolidine-3-carboxamide] | – | > 1 µM | > 1 µM | > 25 µM | – | – | –
CC1C(C(=O)Nc2ccc(F)c(Cl)c2F)CCCN1C(=O)C(=O)N[C@H](C)C(F)(F)F (single isomer, unassigned) [Compound 35c] | > 25 µM | > 1 µM | > 1 µM | – | – | – | –
Cc1cc(NC(=O)C2CC(C)N(C(=O)C(=O)NC3(C)COC3)C2)ccc1F (single isomer, unassigned) [Compound 17b, N-(4-fluoro-3-methylphenyl)-5-methyl-1-(2-((3-methyloxetan-3-yl)amino)-2-oxoacetyl)pyrrolidine-3-carboxamide] | > 25 µM | 0.796 µM | 0.918 µM | – | – | – | –
C[C@@H](NC(=O)C(=O)N1CC[C@H](C(=O)Nc2ccc(F)c(C(F)(F)F)c2)C1)C(F)(F)F [Compound 14, (S)-N-(4-fluoro-3-(trifluoromethyl)phenyl)-1-(2-oxo-2-(((R)-1,1,1-trifluoropropan-2-yl)amino)acetyl)pyrrolidine-3-carboxamide] | – | – | – | > 25 µM | 0.045 µM | – | 0.064 µM
CC1C(C(=O)Nc2ccc(F)c(Cl)c2F)CCCN1C(=O)C(=O)N[C@H](C)C(F)(F)F (single isomer, unassigned) [Compound 35a] | – | > 1 µM | > 1 µM | > 25 µM | – | – | –
O=C(NC1(C(F)(F)F)CC1)C(=O)N1CC[C@H](C(=O)Nc2cc(F)c(F)c(Cl)c2)C1 [Compound 13, (S)-N-(3-chloro-4,5-difluorophenyl)-1-(2-oxo-2-((1-(trifluoromethyl)cyclopropyl)amino)acetyl)pyrrolidine-3-carboxamide] | – | – | – | > 25 µM | 0.035 µM | – | 0.02 µM
CC(C)(C)NC(=O)C(=O)N1CC[C@H](C(=O)Nc2cc(F)c(F)c(Br)c2)C1 [Compound 3, (S)-N-(3-bromo-4,5-difluorophenyl)-1-(2-(tert-butylamino)-2-oxoacetyl)-pyrrolidine-3-carboxamide] | – | – | – | > 25 µM | 0.026 µM | – | 0.141 µM
